pIC50: −log10 of the molar value. Where two headings read alike, the source gives them in different places. Positions of bridges follow the written chain, without caps; N, C: chain ends. Non-standard residues stand in square brackets, D forms with d. Residues, ends and D or L forms follow the SMILES beside them. Phe(4-COOH) = N[C@@H](Cc1ccc(C(=O)O)cc1)C(=O)O; Phe(4-I) = N[C@@H](Cc1ccc(I)cc1)C(=O)O; NMeF = CN[C@@H](Cc1ccccc1)C(=O)O; 2Pal = N[C@@H](Cc1ccccn1)C(=O)O; Cha = N[C@@H](CC1CCCCC1)C(=O)O
What was measured:
Assay in all cases: cell-based
hNav1.5 = hNav1.5 (Homo sapiens, UniProt Q14524); conditions: IonWorks Quattro, use, […], read-out: IWQ Use Nav1.5
hNav1.7 = hNav1.7 (Homo sapiens, UniProt Q15858); type: cell-based; conditions: IonWorks Quattro, use, […], read-out: IWQ Use Nav1.7
hNav1.3 = hNav1.3 (Homo sapiens, UniProt Q9NY46); conditions: IonWorks Quattro, use, […], read-out: IWQ Use Nav1.3
Chain of hNav1.3 (Q9NY46 whole entry, looked up): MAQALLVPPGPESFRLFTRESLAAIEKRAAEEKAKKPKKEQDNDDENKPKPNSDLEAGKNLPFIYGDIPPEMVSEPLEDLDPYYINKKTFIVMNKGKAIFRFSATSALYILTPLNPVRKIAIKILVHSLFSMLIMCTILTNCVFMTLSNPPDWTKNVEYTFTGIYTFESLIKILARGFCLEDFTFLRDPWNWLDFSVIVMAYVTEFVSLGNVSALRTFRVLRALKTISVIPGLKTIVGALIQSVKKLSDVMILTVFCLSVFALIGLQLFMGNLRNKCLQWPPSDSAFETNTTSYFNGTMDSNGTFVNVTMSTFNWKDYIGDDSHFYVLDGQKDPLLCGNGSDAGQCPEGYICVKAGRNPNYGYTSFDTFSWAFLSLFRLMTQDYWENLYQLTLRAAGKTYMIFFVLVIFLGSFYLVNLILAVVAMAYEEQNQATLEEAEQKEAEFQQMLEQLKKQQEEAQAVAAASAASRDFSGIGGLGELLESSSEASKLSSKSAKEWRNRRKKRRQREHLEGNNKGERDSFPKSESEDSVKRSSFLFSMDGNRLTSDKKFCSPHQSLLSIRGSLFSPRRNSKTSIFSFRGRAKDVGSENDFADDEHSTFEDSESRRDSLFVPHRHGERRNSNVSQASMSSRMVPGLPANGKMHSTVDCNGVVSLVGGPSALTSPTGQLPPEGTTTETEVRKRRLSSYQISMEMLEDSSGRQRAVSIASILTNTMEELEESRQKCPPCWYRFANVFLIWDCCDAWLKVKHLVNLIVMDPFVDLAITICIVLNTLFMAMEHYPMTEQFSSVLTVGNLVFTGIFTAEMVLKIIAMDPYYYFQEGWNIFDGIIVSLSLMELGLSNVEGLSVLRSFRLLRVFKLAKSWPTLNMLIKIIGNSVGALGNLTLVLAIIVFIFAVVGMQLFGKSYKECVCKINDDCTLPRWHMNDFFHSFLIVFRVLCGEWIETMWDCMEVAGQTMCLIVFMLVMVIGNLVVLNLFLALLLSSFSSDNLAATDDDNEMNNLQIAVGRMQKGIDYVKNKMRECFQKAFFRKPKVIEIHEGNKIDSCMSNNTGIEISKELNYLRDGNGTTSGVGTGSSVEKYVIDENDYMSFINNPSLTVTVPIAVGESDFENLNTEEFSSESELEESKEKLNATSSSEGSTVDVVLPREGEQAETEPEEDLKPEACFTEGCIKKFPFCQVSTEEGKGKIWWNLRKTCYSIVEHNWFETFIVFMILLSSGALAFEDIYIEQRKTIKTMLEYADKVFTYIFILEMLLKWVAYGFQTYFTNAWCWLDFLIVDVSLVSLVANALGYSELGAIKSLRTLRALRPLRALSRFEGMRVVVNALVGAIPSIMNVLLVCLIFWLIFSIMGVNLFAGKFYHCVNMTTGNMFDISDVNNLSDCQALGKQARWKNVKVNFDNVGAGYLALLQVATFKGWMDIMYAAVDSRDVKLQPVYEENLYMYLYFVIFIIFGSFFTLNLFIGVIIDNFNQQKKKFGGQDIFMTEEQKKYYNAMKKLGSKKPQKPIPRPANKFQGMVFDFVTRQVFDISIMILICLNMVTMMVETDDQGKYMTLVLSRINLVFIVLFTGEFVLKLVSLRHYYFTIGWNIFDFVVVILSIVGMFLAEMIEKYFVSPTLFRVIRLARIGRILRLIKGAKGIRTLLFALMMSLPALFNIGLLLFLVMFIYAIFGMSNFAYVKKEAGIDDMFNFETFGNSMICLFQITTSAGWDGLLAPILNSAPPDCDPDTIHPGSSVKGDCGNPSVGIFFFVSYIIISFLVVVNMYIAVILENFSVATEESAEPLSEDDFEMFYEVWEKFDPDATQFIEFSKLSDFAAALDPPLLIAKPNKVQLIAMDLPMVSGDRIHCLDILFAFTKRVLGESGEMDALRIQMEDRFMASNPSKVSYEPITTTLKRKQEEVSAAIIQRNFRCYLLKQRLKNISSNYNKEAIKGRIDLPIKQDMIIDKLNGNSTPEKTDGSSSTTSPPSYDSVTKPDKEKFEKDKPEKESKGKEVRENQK

Chain of hNav1.5 (Q14524 whole entry, looked up): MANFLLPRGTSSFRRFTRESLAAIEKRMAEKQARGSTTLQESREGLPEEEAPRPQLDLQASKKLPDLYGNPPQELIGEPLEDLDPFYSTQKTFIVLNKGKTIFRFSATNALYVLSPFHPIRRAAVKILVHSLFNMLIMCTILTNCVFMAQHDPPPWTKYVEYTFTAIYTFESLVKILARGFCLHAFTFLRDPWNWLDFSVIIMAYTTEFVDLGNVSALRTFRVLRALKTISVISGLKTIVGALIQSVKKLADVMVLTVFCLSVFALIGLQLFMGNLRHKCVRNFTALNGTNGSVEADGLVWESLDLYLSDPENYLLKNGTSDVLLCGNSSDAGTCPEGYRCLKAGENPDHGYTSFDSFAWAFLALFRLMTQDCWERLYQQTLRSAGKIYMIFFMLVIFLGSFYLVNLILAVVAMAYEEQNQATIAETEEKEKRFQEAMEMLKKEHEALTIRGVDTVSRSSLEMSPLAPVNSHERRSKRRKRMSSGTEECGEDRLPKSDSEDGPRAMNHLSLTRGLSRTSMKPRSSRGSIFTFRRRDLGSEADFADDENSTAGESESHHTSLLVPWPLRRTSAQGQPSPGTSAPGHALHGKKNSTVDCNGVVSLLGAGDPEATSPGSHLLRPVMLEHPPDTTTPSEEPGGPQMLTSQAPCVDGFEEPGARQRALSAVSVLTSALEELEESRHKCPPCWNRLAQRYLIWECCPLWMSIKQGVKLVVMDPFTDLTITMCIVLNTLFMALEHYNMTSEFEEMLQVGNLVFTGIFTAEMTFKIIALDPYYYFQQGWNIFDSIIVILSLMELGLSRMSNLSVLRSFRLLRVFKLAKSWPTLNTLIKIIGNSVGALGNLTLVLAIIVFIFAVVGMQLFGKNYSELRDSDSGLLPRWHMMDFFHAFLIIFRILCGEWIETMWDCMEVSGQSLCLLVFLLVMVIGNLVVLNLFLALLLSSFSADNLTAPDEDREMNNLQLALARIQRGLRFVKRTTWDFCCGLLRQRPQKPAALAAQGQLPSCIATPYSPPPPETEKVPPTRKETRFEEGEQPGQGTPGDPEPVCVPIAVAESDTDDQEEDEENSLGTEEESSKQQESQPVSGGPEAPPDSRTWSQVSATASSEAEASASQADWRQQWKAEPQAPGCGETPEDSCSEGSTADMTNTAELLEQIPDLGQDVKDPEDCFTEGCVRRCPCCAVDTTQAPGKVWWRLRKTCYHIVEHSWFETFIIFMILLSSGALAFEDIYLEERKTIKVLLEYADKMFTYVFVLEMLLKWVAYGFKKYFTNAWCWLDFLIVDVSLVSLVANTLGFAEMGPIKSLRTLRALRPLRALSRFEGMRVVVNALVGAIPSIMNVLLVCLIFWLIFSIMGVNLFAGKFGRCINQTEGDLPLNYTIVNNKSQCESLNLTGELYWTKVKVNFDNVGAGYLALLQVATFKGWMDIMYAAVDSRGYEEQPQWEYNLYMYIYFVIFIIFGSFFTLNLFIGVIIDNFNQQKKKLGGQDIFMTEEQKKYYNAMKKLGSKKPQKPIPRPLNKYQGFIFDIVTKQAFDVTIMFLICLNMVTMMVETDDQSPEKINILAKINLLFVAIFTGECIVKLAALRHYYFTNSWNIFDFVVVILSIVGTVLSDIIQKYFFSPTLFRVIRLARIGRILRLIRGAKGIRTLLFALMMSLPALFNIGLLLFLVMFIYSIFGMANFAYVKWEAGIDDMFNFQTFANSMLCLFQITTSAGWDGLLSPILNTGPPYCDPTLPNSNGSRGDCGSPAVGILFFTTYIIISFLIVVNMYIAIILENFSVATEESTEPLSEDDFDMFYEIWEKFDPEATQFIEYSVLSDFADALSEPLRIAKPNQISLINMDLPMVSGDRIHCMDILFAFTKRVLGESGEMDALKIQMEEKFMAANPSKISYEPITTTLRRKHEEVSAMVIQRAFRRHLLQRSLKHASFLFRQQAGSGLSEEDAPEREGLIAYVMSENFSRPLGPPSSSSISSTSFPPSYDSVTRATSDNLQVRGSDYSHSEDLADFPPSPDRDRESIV

For `CC[C@H](C)[C@@H]1NC(=O)[C@@H]2CSSC[C@@H]3NC(=O)[C@H](C(C)C)NC(=O)[C@H](CC(C)C)NC(=O)[C@H](CC(N)=O)NC(=O)[C@@H]4CCCN4C(=O)[C@H](CCCNC(=N)N)NC(=O)[C@H](CSSC[C@H](NC(=O)[C@@H](N)CC(=O)O)C(=O)N[C@@H](CC(C)C)C(=O)NCC(=O)N[C@@H](Cc4ccccc4)C(=O)N[C@@H](CCSC)C(=O)N[C@@H](CCCNC(=N)N)C(=O)N[C@@H](CCCCN)C(=O)N2)NC(=O)[C@H](CSSC[C@@H](C(=O)N[C@@H](CCCCN)C(=O)N[C@@H](Cc2c[nH]cn2)C(=O)N[C@H](C(=O)N[C@@H](Cc2ccccc2)C(N)=O)C(C)C)NC(=O)[C@H](Cc2c[nH]c4ccccc24)NC(=O)[C@H](CCCCN)NC(=O)[C@H](Cc2c[nH]cn2)NC(=O)[C@H]([C@@H](C)O)NC(=O)[C@H](CCCNC(=N)N)NC(=O)[C@H](CO)NC3=O)NC(=O)[C@H](CCCCN)NC(=O)[C@H](CC(=O)O)NC(=O)[C@H](CC(N)=O)NC(=O)[C@H](CC(=O)O)NC(=O)[C@@H]2CCCN2C1=O` [compound 380] (H-DCLGFMRKCIPDNDKCCRPNLVCSRTHKWCKHVF-NH2; disulfide 2-17, 9-23, 16-30), the pIC50 (hNav1.5; Table 25) was 4.99, the pIC50 (hNav1.7; Table 25) was 6.22 and the pIC50 (hNav1.3; Table 25) was 6.12.

Work on `CC[C@H](C)[C@@H]1NC(=O)[C@@H]2CSSC[C@@H]3NC(=O)[C@H](C(C)C)NC(=O)[C@H](CC(C)C)NC(=O)[C@H](CC(N)=O)NC(=O)[C@@H]4CCCN4C(=O)[C@H](CCCNC(=N)N)NC(=O)[C@H](CSSC[C@H](NC(=O)[C@@H](N)CC(=O)O)C(=O)N[C@@H](CC(C)C)C(=O)NCC(=O)N[C@@H](Cc4ccccc4)C(=O)N[C@@H](CCSC)C(=O)N[C@@H](CCCNC(=N)N)C(=O)N[C@@H](CCCCN)C(=O)N2)NC(=O)[C@H](CSSC[C@@H](C(=O)N[C@@H](CCCCN)C(=O)N[C@@H](Cc2ccc(I)cc2)C(=O)N[C@H](C(=O)N[C@@H](Cc2ccccc2)C(N)=O)C(C)C)NC(=O)[C@H](Cc2c[nH]c4ccccc24)NC(=O)[C@H](CCCCN)NC(=O)[C@H](Cc2c[nH]cn2)NC(=O)[C@H]([C@@H](C)O)NC(=O)[C@H](CCCNC(=N)N)NC(=O)[C@H](CO)NC3=O)NC(=O)[C@H](CCCCN)NC(=O)[C@H](CC(=O)O)NC(=O)[C@H](CC(N)=O)NC(=O)[C@H](CC(=O)O)NC(=O)[C@@H]2CCCN2C1=O` [compound 381] (H-DCLGFMRKCIPDNDKCCRPNLVCSRTHKWCK[Phe(4-I)]VF-NH2; disulfide 2-17, 9-23, 16-30) yielded a pIC50 (hNav1.5; Table 25) of 5.35, a pIC50 (hNav1.7; Table 25) of 7.52 and a pIC50 (hNav1.3; Table 25) of 8.00.

For `CC[C@H](C)[C@@H]1NC(=O)[C@@H]2CSSC[C@@H]3NC(=O)[C@H](C(C)C)NC(=O)[C@H](CC(C)C)NC(=O)[C@H](CC(N)=O)NC(=O)[C@@H]4CCCN4C(=O)[C@H](CCCNC(=N)N)NC(=O)[C@H](CSSC[C@H](NC(=O)[C@@H](N)CC(=O)O)C(=O)N[C@@H](CC(C)C)C(=O)NCC(=O)N[C@@H](Cc4ccccc4)C(=O)N[C@@H](CCSC)C(=O)N[C@@H](CCCNC(=N)N)C(=O)N[C@@H](CCCCN)C(=O)N2)NC(=O)[C@H](CSSC[C@@H](C(=O)N[C@@H](CCCCN)C(=O)N[C@@H](CO)C(=O)N[C@H](C(=O)N[C@@H](Cc2ccccc2)C(N)=O)C(C)C)NC(=O)[C@H](Cc2c[nH]c4ccccc24)NC(=O)[C@H](CCCCN)NC(=O)[C@H](Cc2c[nH]cn2)NC(=O)[C@H]([C@@H](C)O)NC(=O)[C@H](CCCNC(=N)N)NC(=O)[C@H](CO)NC3=O)NC(=O)[C@H](CCCCN)NC(=O)[C@H](CC(=O)O)NC(=O)[C@H](CC(N)=O)NC(=O)[C@H](CC(=O)O)NC(=O)[C@@H]2CCCN2C1=O` [compound 382] (H-DCLGFMRKCIPDNDKCCRPNLVCSRTHKWCKSVF-NH2; disulfide 2-17, 9-23, 16-30), the pIC50 (hNav1.5; Table 25) was less than 5.30, the pIC50 (hNav1.7; Table 25) was 5.40 and the pIC50 (hNav1.3; Table 25) was 5.83.

In the case of `CC[C@H](C)[C@@H]1NC(=O)[C@@H]2CSSC[C@@H]3NC(=O)[C@H](C(C)C)NC(=O)[C@H](CC(C)C)NC(=O)[C@H](CC(N)=O)NC(=O)[C@@H]4CCCN4C(=O)[C@H](CCCNC(=N)N)NC(=O)[C@H](CSSC[C@H](NC(=O)[C@@H](N)CC(=O)O)C(=O)N[C@@H](CC(C)C)C(=O)NCC(=O)N[C@@H](Cc4ccccc4)C(=O)N[C@@H](CCSC)C(=O)N[C@@H](CCCNC(=N)N)C(=O)N[C@@H](CCCCN)C(=O)N2)NC(=O)[C@H](CSSC[C@@H](C(=O)N[C@@H](CCCCN)C(=O)N2CCC[C@H]2C(=O)N[C@H](C(=O)N[C@@H](Cc2ccccc2)C(N)=O)C(C)C)NC(=O)[C@H](Cc2c[nH]c4ccccc24)NC(=O)[C@H](CCCCN)NC(=O)[C@H](Cc2c[nH]cn2)NC(=O)[C@H]([C@@H](C)O)NC(=O)[C@H](CCCNC(=N)N)NC(=O)[C@H](CO)NC3=O)NC(=O)[C@H](CCCCN)NC(=O)[C@H](CC(=O)O)NC(=O)[C@H](CC(N)=O)NC(=O)[C@H](CC(=O)O)NC(=O)[C@@H]2CCCN2C1=O` [compound 383] (H-DCLGFMRKCIPDNDKCCRPNLVCSRTHKWCKPVF-NH2; disulfide 2-17, 9-23, 16-30), the pIC50 (hNav1.5; Table 25) was less than 5.30, the pIC50 (hNav1.7; Table 25) was less than 5.30 and the pIC50 (hNav1.3; Table 25) was less than 5.30.

`CC[C@H](C)[C@@H]1NC(=O)[C@@H]2CSSC[C@@H]3NC(=O)[C@H](C(C)C)NC(=O)[C@H](CC(C)C)NC(=O)[C@H](CC(N)=O)NC(=O)[C@@H]4CCCN4C(=O)[C@H](CCCNC(=N)N)NC(=O)[C@H](CSSC[C@H](NC(=O)[C@@H](N)CC(=O)O)C(=O)N[C@@H](CC(C)C)C(=O)NCC(=O)N[C@@H](Cc4ccccc4)C(=O)N[C@@H](CCSC)C(=O)N[C@@H](CCCNC(=N)N)C(=O)N[C@@H](CCCCN)C(=O)N2)NC(=O)[C@H](CSSC[C@@H](C(=O)N[C@@H](CCCCN)C(=O)N[C@@H](Cc2ccccn2)C(=O)N[C@H](C(=O)N[C@@H](Cc2ccccc2)C(N)=O)C(C)C)NC(=O)[C@H](Cc2c[nH]c4ccccc24)NC(=O)[C@H](CCCCN)NC(=O)[C@H](Cc2c[nH]cn2)NC(=O)[C@H]([C@@H](C)O)NC(=O)[C@H](CCCNC(=N)N)NC(=O)[C@H](CO)NC3=O)NC(=O)[C@H](CCCCN)NC(=O)[C@H](CC(=O)O)NC(=O)[C@H](CC(N)=O)NC(=O)[C@H](CC(=O)O)NC(=O)[C@@H]2CCCN2C1=O` [compound 384] (H-DCLGFMRKCIPDNDKCCRPNLVCSRTHKWCK[2Pal]VF-NH2; disulfide 2-17, 9-23, 16-30) was tested, and the pIC50 (hNav1.5; Table 25) was 5.12, the pIC50 (hNav1.7; Table 25) was 6.09 and the pIC50 (hNav1.3; Table 25) was 6.18.

`CC[C@H](C)[C@@H]1NC(=O)[C@@H]2CSSC[C@@H]3NC(=O)[C@H](C(C)C)NC(=O)[C@H](CC(C)C)NC(=O)[C@H](CC(N)=O)NC(=O)[C@@H]4CCCN4C(=O)[C@H](CCCNC(=N)N)NC(=O)[C@H](CSSC[C@H](NC(=O)[C@@H](N)CC(=O)O)C(=O)N[C@@H](CC(C)C)C(=O)NCC(=O)N[C@@H](Cc4ccccc4)C(=O)N[C@@H](CCSC)C(=O)N[C@@H](CCCNC(=N)N)C(=O)N[C@@H](CCCCN)C(=O)N2)NC(=O)[C@H](CSSC[C@@H](C(=O)N[C@@H](CCCCN)C(=O)N[C@@H](Cc2ccc(C(=O)O)cc2)C(=O)N[C@H](C(=O)N[C@@H](Cc2ccccc2)C(N)=O)C(C)C)NC(=O)[C@H](Cc2c[nH]c4ccccc24)NC(=O)[C@H](CCCCN)NC(=O)[C@H](Cc2c[nH]cn2)NC(=O)[C@H]([C@@H](C)O)NC(=O)[C@H](CCCNC(=N)N)NC(=O)[C@H](CO)NC3=O)NC(=O)[C@H](CCCCN)NC(=O)[C@H](CC(=O)O)NC(=O)[C@H](CC(N)=O)NC(=O)[C@H](CC(=O)O)NC(=O)[C@@H]2CCCN2C1=O` [compound 385] (H-DCLGFMRKCIPDNDKCCRPNLVCSRTHKWCK[Phe(4-COOH)]VF-NH2; disulfide 2-17, 9-23, 16-30) showed a pIC50 (hNav1.5; Table 25) of 5.11, a pIC50 (hNav1.7; Table 25) of 4.94 and a pIC50 (hNav1.3; Table 25) of 5.39.

In the case of `CC[C@H](C)[C@@H]1NC(=O)[C@@H]2CSSC[C@@H]3NC(=O)[C@H](C(C)C)NC(=O)[C@H](CC(C)C)NC(=O)[C@H](CC(N)=O)NC(=O)[C@@H]4CCCN4C(=O)[C@H](CCCNC(=N)N)NC(=O)[C@H](CSSC[C@H](NC(=O)[C@@H](N)CC(=O)O)C(=O)N[C@@H](CC(C)C)C(=O)NCC(=O)N[C@@H](Cc4ccccc4)C(=O)N[C@@H](CCSC)C(=O)N[C@@H](CCCNC(=N)N)C(=O)N[C@@H](CCCCN)C(=O)N2)NC(=O)[C@H](CSSC[C@@H](C(=O)N[C@@H](CCCCN)C(=O)N[C@@H](Cc2ccc(O)cc2)C(=O)N[C@@H](CC2CCCCC2)C(=O)N[C@@H](Cc2ccccc2)C(N)=O)NC(=O)[C@H](Cc2c[nH]c4ccccc24)NC(=O)[C@H](CCCCN)NC(=O)[C@H](Cc2c[nH]cn2)NC(=O)[C@H]([C@@H](C)O)NC(=O)[C@H](CCCNC(=N)N)NC(=O)[C@H](CO)NC3=O)NC(=O)[C@H](CCCCN)NC(=O)[C@H](CC(=O)O)NC(=O)[C@H](CC(N)=O)NC(=O)[C@H](CC(=O)O)NC(=O)[C@@H]2CCCN2C1=O` [compound 386] (H-DCLGFMRKCIPDNDKCCRPNLVCSRTHKWCKY[Cha]F-NH2; disulfide 2-17, 9-23, 16-30), the pIC50 (hNav1.5; Table 26) was 4.91, the pIC50 (hNav1.7; Table 26) was 7.15 and the pIC50 (hNav1.3; Table 26) was 7.15.

In the case of `CC[C@H](C)[C@@H]1NC(=O)[C@@H]2CSSC[C@@H]3NC(=O)[C@H](C(C)C)NC(=O)[C@H](CC(C)C)NC(=O)[C@H](CC(N)=O)NC(=O)[C@@H]4CCCN4C(=O)[C@H](CCCNC(=N)N)NC(=O)[C@H](CSSC[C@H](NC(=O)[C@@H](N)CC(=O)O)C(=O)N[C@@H](CC(C)C)C(=O)NCC(=O)N[C@@H](Cc4ccccc4)C(=O)N[C@@H](CCSC)C(=O)N[C@@H](CCCNC(=N)N)C(=O)N[C@@H](CCCCN)C(=O)N2)NC(=O)[C@H](CSSC[C@@H](C(=O)N[C@@H](CCCCN)C(=O)N[C@@H](Cc2ccc(O)cc2)C(=O)N(C)[C@@H](Cc2ccccc2)C(=O)N[C@@H](Cc2ccccc2)C(N)=O)NC(=O)[C@H](Cc2c[nH]c4ccccc24)NC(=O)[C@H](CCCCN)NC(=O)[C@H](Cc2c[nH]cn2)NC(=O)[C@H]([C@@H](C)O)NC(=O)[C@H](CCCNC(=N)N)NC(=O)[C@H](CO)NC3=O)NC(=O)[C@H](CCCCN)NC(=O)[C@H](CC(=O)O)NC(=O)[C@H](CC(N)=O)NC(=O)[C@H](CC(=O)O)NC(=O)[C@@H]2CCCN2C1=O` [compound 388] (H-DCLGFMRKCIPDNDKCCRPNLVCSRTHKWCKY[NMeF]F-NH2; disulfide 2-17, 9-23, 16-30), the pIC50 (hNav1.5; Table 26) was less than 5.30, the pIC50 (hNav1.7; Table 26) was 5.89 and the pIC50 (hNav1.3; Table 26) was 5.96.
